Reference: patent US4526892A, “Dimethylaminoalkyl-3-(ergoline-8'βcarbonyl)-ureas” (Farmitalia Carlo Erba, S.p.A., priority 1982, dated 1985)

Columns and labels:
[1] = tested on: spontaneously hypertensive male rats, strain SHR; experiment: Anti-hypertensive activity: change in blood pressure (BP) in SHR rats; assay type: in vivo, rat
Method: (§1) Four spontaneously hypertensive male rats, strain SHR, weighing 250-300 g for each group were used. The animals were treated once a day for four consecutive days. Drugs were administered by gastric gavage, suspended in 5% gum arabic (0.2 ml/100 g body weight) and blood pressure (BP) and heart rate (HR) were measured by indirected tail/cuff method (BP Recorder W+W). Blood pressure and heart rate were measured on the first and fourth days of treatment 1 hour before and 1 and 5 hours after drug administration. Hydralazine and α-methyl-Dopa were used as reference drugs.

[2] = tested on: spontaneously hypertensive male rats, strain SHR; experiment: Change in heart rate (HR) in SHR rats; assay type: in vivo, rat
Method: as §1

prolactin secretion = experiment: Anti-prolactin activity: egg-nidation inhibition in rats; assay type: in vivo, rat (Sprague Dawley); details: Rattus norvegicus, po, 120 h; p.o., day 5 of pregnancy; read-out: Nidation inhibition in rats ED50
Text: The prolactin secretion inhibitory action of the compounds has been indirectly evaluated by determining the egg-nidation inhibitory action in rats. For the ergoline derivatives this activity is considered to be correlated with the anti-prolactin activity (E. FLUCKIGER and E. DEL POZO,Handb. exp. Pharmac. 49, 615, 1978), since prolactin is the only hypophysial hormone involved in the maintenance of the first part of pregnancy in rats (W. K. MORISHIGE and I. ROTHCHILD, Endocrinology 95, 260, 1974).
Pregnant Sprague Dawley rats weighing 200-250 g were used. The compounds to be tested, dissolved in diluted mineral acids, were administered orally to groups from six to eight rats on day 5 of pregnancy. The animals were sacrificed on day 14 and the uteri were examined. The absence of implantation sites was taken as the criterion of anti-prolactin activity. Several doses were tested for the ED50 evaluation. As reference standard Bromocriptine was used.

[3] = 0.5 mg/kg os, 1st day, 1 hour after dosing
[4] = 0.5 mg/kg os, 1st day, 5 hours after dosing
[5] = 0.5 mg/kg os, 4th day, 1 hour after dosing
[6] = 0.5 mg/kg os, 4th day, 5 hours after dosing
[7] = 1 mg/kg os, 1st day, 1 hour after dosing
[8] = 1 mg/kg os, 1st day, 5 hours after dosing
[9] = 1 mg/kg os, 4th day, 1 hour after dosing
[10] = 1 mg/kg os, 4th day, 5 hours after dosing
[11] = os, all tested doses of the compound
[12] = 2 mg/kg os, 1st day, 1 hour after dosing
[13] = 2 mg/kg os, 1st day, 5 hours after dosing
[14] = 2 mg/kg os, 4th day, 1 hour after dosing
[15] = 2 mg/kg os, 4th day, 5 hours after dosing
[16] = 10 mg/kg os, 1st day, 1 hour after dosing
[17] = 10 mg/kg os, 1st day, 5 hours after dosing
[18] = 10 mg/kg os, 4th day, 1 hour after dosing
[19] = 10 mg/kg os, 4th day, 5 hours after dosing
[20] = 0.1 mg/kg os, 1st day, 1 hour after dosing
[21] = 0.1 mg/kg os, 1st day, 5 hours after dosing
[22] = 0.1 mg/kg os, 4th day, 1 hour after dosing
[23] = 0.1 mg/kg os, 4th day, 5 hours after dosing
[24] = 12.5 mg/kg os, 1st day, 1 hour after dosing
[25] = 12.5 mg/kg os, 1st day, 5 hours after dosing
[26] = 12.5 mg/kg os, 4th day, 1 hour after dosing
[27] = 12.5 mg/kg os, 4th day, 5 hours after dosing
[28] = 5 mg/kg os, 1st day, 1 hour after dosing
[29] = 5 mg/kg os, 1st day, 5 hours after dosing
[30] = 5 mg/kg os, 4th day, 1 hour after dosing
[31] = 5 mg/kg os, 4th day, 5 hours after dosing

CC(C)NC(=O)N(C(=O)[C@@H]1C[C@@H]2c3cccc4[nH]cc(c34)C[C@H]2N(C)C1)C(C)C [Example 1, 1,3-diisopropyl-3-(6'-methylergoline-8'β-carbonyl)urea]
Change in BP [1, 3]: -27 mmHg
Change in BP [1, 4]: -20 mmHg
Change in BP [1, 5]: -20 mmHg
Change in BP [1, 6]: 0 mmHg
Change in BP [1, 7]: -40 mmHg
Change in BP [1, 8]: -37 mmHg
Change in BP [1, 9]: -40 mmHg
Change in BP [1, 10]: -32 mmHg
Hypotensive activity vs Hydralazine ([1]; doses not stated): greater and longer lasting hypotensive activity than Hydralazine
Effect on BP (in words) [1, 11]: marked decrease of BP in a dose dependent manner
Change in HR [2, 3]: -20 beats/minute
Change in HR [2, 4]: -12 beats/minute
Change in HR [2, 5]: -20 beats/minute
Change in HR [2, 6]: -7 beats/minute
Change in HR [2, 7]: -30 beats/minute
Change in HR [2, 8]: -35 beats/minute
Change in HR [2, 9]: -35 beats/minute
Change in HR [2, 10]: -30 beats/minute

CO[C@]12C[C@@H](C(=O)N(C(=O)NC(C)(C)C)C(C)(C)C)CN(C)[C@@H]1Cc1c[nH]c3cccc2c13 [Example 12, 1,3-di-t-butyl-3-(10'αmethoxy-6'-methylergoline-8'β-carbonyl)-urea]
Change in BP [1, 12]: -17 mmHg
Change in BP [1, 13]: -17 mmHg
Change in BP [1, 14]: -10 mmHg
Change in BP [1, 15]: -24 mmHg
Tolerance on the 4th day ([1]; 10 mg/kg): tolerance does not occur
Change in BP [1, 16]: -26 mmHg
Change in BP [1, 17]: -37 mmHg
Change in BP [1, 18]: -71 mmHg
Change in BP [1, 19]: -28 mmHg
Hypotensive activity vs Hydralazine ([1]; compound 10 mg/kg vs Hydralazine 5 mg/kg, 1st day): comparable activity to that of Hydralazine
Hypotensive activity vs Hydralazine ([1]; compound 10 mg/kg vs Hydralazine 5 mg/kg, 4th day): greater activity on the 4th day
Effect on BP (in words) [1, 11]: reduced BP in a dose dependent manner
Change in HR [2, 12]: -10 beats/minute
Change in HR [2, 13]: -10 beats/minute
Change in HR [2, 14]: -20 beats/minute
Change in HR [2, 15]: -12 beats/minute
Change in HR [2, 16]: 0 beats/minute
Change in HR [2, 17]: -30 beats/minute
Change in HR [2, 18]: +17 beats/minute
Change in HR [2, 19]: -10 beats/minute

CO[C@]12C[C@@H](C(=O)N(C(=O)NC(C)(C)C)C(C)(C)C)CN(C)[C@@H]1Cc1cn(C)c3cccc2c13 [Example 17]
Effect on BP (in words) ([1]; 0.1 mg/kg b.w.): No effect
Change in BP [1, 20]: -5 mmHg
Change in BP [1, 21]: -7 mmHg
Change in BP [1, 22]: -4 mmHg
Change in BP [1, 23]: -10 mmHg
Change in BP [1, 7]: -20 mmHg
Change in BP [1, 8]: -19 mmHg
Change in BP [1, 9]: -43 mmHg
Change in BP [1, 10]: -66 mmHg
Effect on BP (in words) ([1]; 10 mg/kg b.w., 1st and 4th day): dose related as well as very marked
Change in BP [1, 17]: -60 mmHg
Change in BP [1, 18]: -59 mmHg
Change in BP [1, 19]: -93 mmHg
Hypotensive activity vs Hydralazine ([1]; compound 1 mg/kg vs Hydralazine 5 mg/kg, 4th day): much more remarkable
Hypotensive activity vs Hydralazine ([1]; compound 1 mg/kg vs Hydralazine 5 mg/kg, first day): comparable to that of Hydralazine
Hypotensive effect vs Hydralazine ([1]; compound 10 mg/kg b.w., 1st and 4th days): hypotensive effect larger than Hydralazine
Change in HR [2, 20]: -2 beats/minute
Change in HR [2, 21]: +3 beats/minute
Change in HR [2, 22]: -4 beats/minute
Change in HR [2, 23]: -8 beats/minute
Change in HR [2, 7]: -20 beats/minute
Change in HR [2, 8]: -23 beats/minute
Change in HR [2, 9]: -27 beats/minute
Change in HR [2, 10]: -22 beats/minute
Change in HR [2, 16]: +15 beats/minute
Change in HR [2, 17]: -13 beats/minute
Change in HR [2, 18]: -2 beats/minute
Change in HR [2, 19]: +6 beats/minute

CN1C[C@H](C(=O)N(C(=O)NC(C)(C)C)C(C)(C)C)C[C@@H]2c3cccc4c3c(cn4C)C[C@H]21 [Example 18, 1,3-di-tert-butyl-3-(1',6'-dimethylergoline-8'β-carbonyl)urea]
Change in BP [1, 7]: -15 mmHg
Change in BP [1, 8]: -10 mmHg
Change in BP [1, 9]: -8 mmHg
Change in BP [1, 10]: -14 mmHg
Effect on BP (in words) ([1]; 12.5 mg/kg b.w. (highest dose), 4th day): very remarkable on the 4th day of treatment and still lasting 5 hours after administration
Change in BP [1, 24]: -19 mmHg
Change in BP [1, 25]: -19 mmHg
Change in BP [1, 26]: -38 mmHg
Change in BP [1, 27]: -47 mmHg
Hypotensive activity vs Hydralazine ([1]; compound 12.5 mg/kg vs Hydralazine 5 mg/kg, 4th day): much more remarkable
Hypotensive activity vs Hydralazine ([1]; compound 12.5 mg/kg vs Hydralazine 5 mg/kg, first day): comparable to that of Hydralazine
Effect on BP (in words) [1, 11]: reduced BP with both the tested doses (12.5 and 1 mg/kg b.w.); this effect was dose dependent
Change in HR [2, 7]: -22 beats/minute
Change in HR [2, 8]: -20 beats/minute
Change in HR [2, 9]: +7 beats/minute
Change in HR [2, 10]: -8 beats/minute
Change in HR [2, 24]: -10 beats/minute
Change in HR [2, 25]: -15 beats/minute
Change in HR [2, 26]: +2 beats/minute
Change in HR [2, 27]: +5 beats/minute

C=CCN1C[C@H](C(=O)N(CC)C(=O)NCCCN(C)C)C[C@@H]2c3cccc4[nH]cc(c34)C[C@H]21 [Example 20, 1-(3'-dimethylaminopropyl)-3-ethyl-3-(6'-allylergoline-8'β-carbonyl)-urea]
ED50 (prolactin secretion): 0.27 mg/kg

C=CCN1C[C@H](C(=O)N(C)C(=O)NC)C[C@@H]2c3cccc4[nH]cc(c34)C[C@H]21 [Example 24, 1,3-Dimethyl-3-(6'-allylergoline-8'β-carbonyl)-urea]
ED50 (prolactin secretion): 0.5 mg/kg

NNc1nncc2ccccc12 [Hydralazine, reference compound]
Change in BP [1, 7]: -5 mmHg
Change in BP [1, 8]: -15 mmHg
Change in BP [1, 9]: -5 mmHg
Change in BP [1, 10]: 0 mmHg
Change in BP [1, 28]: -40 mmHg
Change in BP [1, 29]: -20 mmHg
Change in BP [1, 30]: -20 mmHg
Change in BP [1, 31]: -7 mmHg
Change in HR [2, 7]: +30 beats/minute
Change in HR [2, 8]: +35 beats/minute
Change in HR [2, 9]: +25 beats/minute
Change in HR [2, 10]: +15 beats/minute
Change in HR [2, 28]: +40 beats/minute
Change in HR [2, 29]: +45 beats/minute
Change in HR [2, 30]: +18 beats/minute
Change in HR [2, 31]: +15 beats/minute
Effect on HR (in words) ([2]; SHR rats, os): increase of HR
